What was measured:
CYP3A4(BQ) = CYP3A4(BQ) (Homo sapiens, UniProt P08684); experiment: CYP3A4(BQ) inhibition; format: in vitro ADME; details: CYP3A4, substrate BQ; read-out: Cyp IC50 3A4(BQ)
How it was run: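 After 30 min incubation at 37° C, plates were read on a Tecan Safire 2 at 409 ex/460 em, and IC50 values came from signal plotted against compound concentration. Enzyme and substrate were sourced from BD Biosciences. The cofactor mix held 1.3% NADPH Regeneration system Solution A, 1.04% Solution B, 5% acetonitrile and 0.05% DMSO.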

MV-4-11 cells = experiment: MV-4-11 (leukemia) cell proliferation assay (ATPlite); format: cell-based; details: Homo sapiens, MV4-11, read-out: Inhibition of Cell Proliferation IC50, MV-4-11
Method: Compounds are assessed in a variety of cell based assays. For example BaF3 cells engineered with any of BCR-FMS, BCR-KIT, BCR-FLT3, BCR-NTRK1, BCR-NTRK2, and BCR-NTRK3, are used in cell proliferation assays to assess inhibitory activity of Fms, Kit, Flt-3, TrkA, TrkB, and TrkC, respectively. An MV-4-11 (leukemia) cell proliferation assay is used to assess inhibitory activity in Flt-3, and SKNSH (human neuroblastoma) cell proliferation assay is used to assess efficacy of Fms/Trk inhibitors. Additional cells may be assayed similarly to assess the efficacy of Fms/Trk inhibitors, such as MiaPaCa (human pancreatic cancer) and Capan-1 (human pancreatic carcinoma) cells. Reagent and assay conditions are as follows: • BaF3 cells: • Maintained in RPMI containing 10% FBS, 1% PenStrep, 1% NEAA, and 1% L-Glutamine, supplemented with 1 mg/mL G418 and 5% WEHI-CM (or recombinant murine IL-3). • Confluent cells are split 1:50 to 1:100 every 3-4 days. • MV-4-11 cells: • Maintained in Iscove's Modified Dulbecco's Medium containing 10% FBS. • Confluent cells are split 1:4 every 3-4 days. • SKNSH cells: RPMI containing 10% FBS. On day 1, cells are counted, then centrifuged in a conical tube for 5 minutes at 1000 rpm. The supernatant is removed and cells are re-suspended as follows: • BaF3: resuspend in growth media +1 mg/mL G418 (without WEHFIL-3) to 2×10^5 cells/mL. • MV-4-11: resuspend in growth media to 5×10^5 cells/mL. • SKNSH: resuspend in growth media to 2×10^4 cells/mL. The cells are plated (50 μL, 150 μL for SKNSH cells) in each well of a 96-well dish (Corning 3610) and incubated at 37° C. in 5% CO2 overnight, cells plated to a final concentration of cells as follows: • BaF3: 10,000 cells per well. • MV-4-11: 25,000 cells per well. • SKNSH: 3,000 cells per well. On day 2, compound at a maximum concentration of 5 mM is serially diluted 1:3 for a total of 8 point titration with DMSO as a control. A 1 μL aliquot of each dilution point is added to 249 μL growth media and 50 μL is added to a well containing cells, providing 10 μM compound for the maximum concentration point. The cells are incubated for 3 days at 37° C. in 5% CO2. For SKNSH cells, a 0.75 μL aliquot of appropriate dilution in DMSO is added to 150 μL of cells. On day 5, ATPlite 1 step Luminescence Assay System (Perkin Elmer #6016739) is brought to room temperature along with the cell cultures. ATPlite is added to each well as follows: • BaF3: 25 μL per well. • MV-4-11: 40 μL per well. • SKNSH: 20 μL per well. The cells are incubated at room temperature for 10 minutes, then luminescence is read on Safire reader. The measured luminescence correlates directly with cell number, such that the reading as a function of compound concentration is used to determine the IC50 value.
It is understood that the results of these assays may vary as assay conditions are varied. Inhibition levels determined under the conditions described herein represent a relative activity for the compounds tested under the specific conditions employed. The cell based assays are likely to show variability due to the complexity of the system and the sensitivity thereof to any changes in the assay conditions. […] Results for compounds that are tested and show substantially no inhibition below the highest tested concentration are represented as “-” in the tables below. In some instances, the compounds were not tested in all of the assays, or assay results were not valid, as indicated by NA in the tables below.

CYP3A4(BQ), sequence (P08684 whole entry): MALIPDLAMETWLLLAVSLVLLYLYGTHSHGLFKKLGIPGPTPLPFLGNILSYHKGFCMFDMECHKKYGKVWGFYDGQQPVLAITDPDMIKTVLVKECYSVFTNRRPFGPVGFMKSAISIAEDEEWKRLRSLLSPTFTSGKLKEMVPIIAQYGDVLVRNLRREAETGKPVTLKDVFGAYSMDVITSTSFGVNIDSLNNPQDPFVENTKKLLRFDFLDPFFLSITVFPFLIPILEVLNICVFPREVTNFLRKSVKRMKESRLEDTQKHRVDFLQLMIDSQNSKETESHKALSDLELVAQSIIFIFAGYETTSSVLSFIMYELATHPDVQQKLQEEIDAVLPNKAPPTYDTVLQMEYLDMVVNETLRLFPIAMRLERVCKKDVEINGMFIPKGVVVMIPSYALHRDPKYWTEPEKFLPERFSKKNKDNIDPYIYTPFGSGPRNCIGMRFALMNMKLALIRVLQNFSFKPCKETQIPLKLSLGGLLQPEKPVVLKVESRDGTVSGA

Structure (SMILES) | IC50 (CYP3A4(BQ)) [µM] | IC50 (MV-4-11 cells) [µM]
FC1(F)CCC(Nc2ncc(Cc3c[nH]c4ncc(Cl)cc34)cn2)CC1 [Compound P-3004] | > 10 | < 10
Cc1cnc2[nH]cc(Cc3cnc(Nc4ccc(C(F)(F)F)nc4)nc3)c2c1 [Compound P-3018, [5-(5-Methyl-1H-pyrrolo[2,3-b]pyridin-3-ylmethyl)-pyrimidin-2-yl]-(6-trifluoromethyl-pyridin-3-yl)-amine] | > 10 | < 0.01
COc1ccc(Nc2ccc(Cc3c[nH]c4ncc(C)cc34)c(F)n2)cn1 [Compound P-3019, [6-fluoro-5-(5-methyl-1H-pyrrolo[2,3-b]pyridin-3-ylmethyl)-pyridin-2-yl]-(6-methoxy-pyridin-3-yl)-amine] | > 10 | < 1
COc1ccc(Nc2ncc(Cc3c[nH]c4ncc(C)cc34)cn2)cn1 [Compound P-3020, (6-Methoxy-pyridin-3-yl)-[5-(5-methyl-1H-pyrrolo[2,3-b]pyridin-3-ylmethyl)-pyrimidin-2-yl]-amine] | – | < 0.1
COc1cc(Nc2ncc(Cc3c[nH]c4ncc(C)cc34)cn2)ccc1F [Compound P-3022, (4-Fluoro-3-methoxy-phenyl)-[5-(5-methyl-1H-pyrrolo[2,3-b]pyridin-3-ylmethyl)-pyrimidin-2-yl]-amine] | – | < 1
COc1ccc(Nc2ncc(Cc3c[nH]c4ncc(C)cc34)cn2)cc1F [Compound P-3023, (3-Fluoro-4-methoxy-phenyl)-[5-(5-methyl-1H-pyrrolo[2,3-b]pyridin-3-ylmethyl)-pyrimidin-2-yl]-amine] | – | < 0.1
CCOc1ccc(Nc2ncc(Cc3c[nH]c4ncc(C)cc34)cn2)cn1 [Compound P-3027, (6-Ethoxy-pyridin-3-yl)-[5-(5-methyl-1H-pyrrolo[2,3-b]pyridin-3-ylmethyl)-pyrimidin-2-yl]-amine] | – | < 0.01
CCn1ccc(Nc2ncc(Cc3c[nH]c4ncc(C)cc34)cn2)n1 [Compound P-3035, (1-Ethyl-1H-pyrazol-3-yl)-[5-(5-methyl-1H-pyrrolo[2,3-b]pyridin-3-ylmethyl)-pyrimidin-2-yl]-amine] | – | < 1
CCn1cc(Nc2ncc(Cc3c[nH]c4ncc(C)cc34)cn2)cn1 [Compound P-3036, (1-Ethyl-1H-pyrazol-4-yl)-[5-(5-methyl-1H-pyrrolo[2,3-b]pyridin-3-ylmethyl)-pyrimidin-2-yl]-amine] | – | < 0.1
Cc1cnc2[nH]cc(Cc3cnc(Nc4cc(OC(C)C)n[nH]4)nc3)c2c1 [Compound P-3038, (5-Isopropoxy-2H-pyrazol-3-yl)-[5-(5-methyl-1H-pyrrolo[2,3-b]pyridin-3-ylmethyl)-pyrimidin-2-yl]-amine] | – | > 1
CCOc1ccc(Nc2ccc(Cc3c[nH]c4ncc(C)cc34)c(F)n2)cn1 [Compound P-3039, (6-ethoxy-pyridin-3-yl)-[6-fluoro-5-(5-methyl-1H-pyrrolo[2,3-b]pyridin-3-ylmethyl)-pyridin-2-yl]-amine] | – | < 1
COc1ccc(Nc2ccc(Cc3c[nH]c4ncnc(OC)c34)c(F)n2)cn1 [Compound P-4001, [6-Fluoro-5-(4-methoxy-7H-pyrrolo[2,3-d]pyrimidin-5-ylmethyl)-pyridin-2-yl]-(6-methoxy-pyridin-3-yl)-amine] | – | < 1
COc1ncnc2[nH]cc(Cc3ccc(Nc4ccc(Cl)nc4)nc3F)c12 [Compound P-4003, (6-Chloro-pyridin-3-yl)-[6-fluoro-5-(4-methoxy-7H-pyrrolo[2,3-d]pyrimidin-5-ylmethyl)-pyridin-2-yl]-amine] | > 10 | < 1
COc1ncnc2[nH]cc(Cc3ccc(Nc4ccc(C5CC5)nc4)nc3F)c12 [Compound P-4004, (6-Cyclopropyl-pyridin-3-yl)-[6-fluoro-5-(4-methoxy-7H-pyrrolo[2,3-d]pyrimidin-5-ylmethyl)-pyridin-2-yl]-amine] | > 10 | < 1
CCOc1ccc(Nc2ccc(Cc3c[nH]c4ncnc(OC)c34)c(F)n2)cn1 [Compound P-4005, (6-Ethoxy-pyridin-3-yl)-[6-fluoro-5-(4-methoxy-7H-pyrrolo[2,3-d]pyrimidin-5-ylmethyl)-pyridin-2-yl]-amine] | > 10 | < 1
CCOc1ccc(Nc2ccc(Cc3c[nH]c4ncnc(C)c34)c(F)n2)cn1 [Compound P-4006, (6-Ethoxy-pyridin-3-yl)-[6-fluoro-5-(4-methyl-7H-pyrrolo[2,3-d]pyrimidin-5-ylmethyl)-pyridin-2-yl]-amine] | > 10 | < 0.1
CCc1ccc(Nc2ccc(Cc3c[nH]c4ncnc(OC)c34)c(F)n2)cn1 [Compound P-4007, (6-Ethyl-pyridin-3-yl)-[6-fluoro-5-(4-methoxy-7H-pyrrolo[2,3-d]pyrimidin-5-ylmethyl)-pyridin-2-yl]-amine] | > 10 | < 1
CCOc1ccc(Nc2ccc(Cc3c[nH]c4ncnc(OCCOC)c34)c(F)n2)cn1 [Compound P-4008, (6-Ethoxy-pyridin-3-yl)-{6-fluoro-5-[4-(2-methoxy-ethoxy)-7H-pyrrolo[2,3-d]pyrimidin-5-ylmethyl]-pyridin-2-yl}-amine] | > 10 | < 0.1
CCc1ccc(Nc2ccc(Cc3c[nH]c4ncnc(C)c34)c(F)n2)cn1 [Compound P-4009, (6-Ethyl-pyridin-3-yl)-[6-fluoro-5-(4-methyl-7H-pyrrolo[2,3-d]pyrimidin-5-ylmethyl)-pyridin-2-yl]-amine] | > 10 | < 0.1
COc1ncnc2[nH]cc(Cc3ccc(Nc4ccc(C)nc4)nc3F)c12 [Compound P-4010, [6-Fluoro-5-(4-methoxy-7H-pyrrolo[2,3-d]pyrimidin-5-ylmethyl)-pyridin-2-yl]-(6-methyl-pyridin-3-yl)-amine] | > 10 | < 1
CCn1cc(Nc2ccc(Cc3c[nH]c4ncnc(OC)c34)c(F)n2)cn1 [Compound P-4011, (1-Ethyl-1H-pyrazol-4-yl)-[6-fluoro-5-(4-methoxy-7H-pyrrolo[2,3-d]pyrimidin-5-ylmethyl)-pyridin-2-yl]-amine] | > 10 | < 1
CCOc1ncnc2[nH]cc(Cc3ccc(Nc4cnn(CC)c4)nc3F)c12 [Compound P-4012, [5-(4-Ethoxy-7H-pyrrolo[2,3-d]pyrimidin-5-ylmethyl)-6-fluoro-pyridin-2-yl]-(1-ethyl-1H-pyrazol-4-yl)-amine] | > 10 | < 1
CCn1cc(Nc2ccc(Cc3c[nH]c4ncnc(C)c34)c(F)n2)cn1 [Compound P-4013, (1-Ethyl-1H-pyrazol-4-yl)-[6-fluoro-5-(4-methyl-7H-pyrrolo[2,3-d]pyrimidin-5-ylmethyl)-pyridin-2-yl]-amine] | > 10 | < 1
CCn1cc(Nc2ccc(Cc3c[nH]c4ncnc(OCCOC)c34)c(F)n2)cn1 [Compound P-4014, (1-Ethyl-1H-pyrazol-4-yl)-{6-fluoro-5-[4-(2-methoxy-ethoxy)-7H-pyrrolo[2,3-d]pyrimidin-5-ylmethyl]-pyridin-2-yl}-amine] | > 10 | < 1
COCCOc1ncnc2[nH]cc(Cc3ccc(Nc4ccc(C)nc4)nc3F)c12 [Compound P-4015, {6-Fluoro-5-[4-(2-methoxy-ethoxy)-7H-pyrrolo[2,3-d]pyrimidin-5-ylmethyl]-pyridin-2-yl}-(6-methyl-pyridin-3-yl)-amine] | > 10 | < 1

Reference: patent publication US8901118B2, “Compounds and methods for kinase modulation, and indications therefor” (Plexxikon Inc., priority 2010, dated 2014)
